Data reported in patent publication US8796247B2, “Indole derivative, and pharmacologically acceptable salt thereof” (Kissei Pharmaceutical Co., Ltd., priority 2011, dated 2014).

Assays:
Female SD rats = assay: Inhibitory effect of compound on sulprostone-induced bladder contraction; type: in vivo, rat; conditions: urethane-anesthetized female SD rats, sulprostone 0.3 mg/kg s.c., test agent 1.0 mg/kg intravenously; for Bladder Contraction Inhibition Rate (%) 15 minutes: 15 minutes after administration; for Bladder Contraction Inhibition Rate (%) 60 minutes: 60 minutes after administration
From the text: Inhibitory Effect of Compound on Sulprostone-Induced Bladder Contraction
Female SD rats were used. Under urethane anesthesia (1.25 g/kg, administered subcutaneously), a tracheal cannula (Size 8, HIBIKI) and a femoral vein cannula for administration (23G needle-equipped PESO) were inserted thereinto. The bladder cannula (PE50) was inserted from the bladder apex. The bladder cannula was connected to a three-way stopcock, and then one port was connected to a pressure transducer and the other port was connected to a syringe filled with saline. Saline was injected into the bladder at an injection rate of 3.6 mL/hour and the bladder contraction pressure was recorded at the time of injection with a recorder (RECTI-HORITZ-8K, NEC Corporation). After 10 minutes from stabilization of the bladder contraction pressure during urination, sulprostone was administered subcutaneously (0.3 mg/kg). Subsequently, once the bladder contraction pressure became constant, a test agent was administered intravenously (1.0 mg/kg). An average bladder contraction pressure during the 10 minute period before administration of sulprostone was used as a baseline (0%). Further, an average bladder contraction pressure during the 10 minute period directly before administration of the test agent was used as a maximum bladder contraction pressure (100%). The average bladder contraction pressures were measured for a 5 minute period before and after 15 minutes and 60 minutes from administration of the test agent. The ratio of this measured value to the maximum bladder contraction pressure was calculated by the following equation and regarded as an average bladder contraction rate after administration of the test agent: (Average Bladder Contraction Rate after Administration of Test Agent (%))=[(Average Bladder Contraction Pressure after Administration of Test Agent)/(Maximum Bladder Contraction Pressure)]×100 EQUATION 1
In addition, the difference between the maximum bladder contraction rate (100%) and the average bladder contraction rate (%) after administration of the test agent was calculated by the following equation and regarded as a bladder contraction inhibition rate of the test agent: (Bladder Contraction Inhibition Rate)=100%−(Average Bladder Contraction Rate after Administration of Test Agent (%)) EQUATION 2

rat EP1 receptor = target: T1, rat EP1 receptor (Rattus norvegicus, UniProt P70597); assay: Test for confirmation of EP1 receptor antagonism: inhibition of prostaglandin E2-induced increase in intracellular calcium concentration in rat EP1 receptor-expressing COS-1 cells; type: cell-based; conditions: prostaglandin E2 10 nM, intracellular calcium fluorescence signal
T1 construct: expressed in transfected cells; host or cells: COS-1 cells, transient transfection with Lipofectamine 2000
T1 sequence (P70597 1-405): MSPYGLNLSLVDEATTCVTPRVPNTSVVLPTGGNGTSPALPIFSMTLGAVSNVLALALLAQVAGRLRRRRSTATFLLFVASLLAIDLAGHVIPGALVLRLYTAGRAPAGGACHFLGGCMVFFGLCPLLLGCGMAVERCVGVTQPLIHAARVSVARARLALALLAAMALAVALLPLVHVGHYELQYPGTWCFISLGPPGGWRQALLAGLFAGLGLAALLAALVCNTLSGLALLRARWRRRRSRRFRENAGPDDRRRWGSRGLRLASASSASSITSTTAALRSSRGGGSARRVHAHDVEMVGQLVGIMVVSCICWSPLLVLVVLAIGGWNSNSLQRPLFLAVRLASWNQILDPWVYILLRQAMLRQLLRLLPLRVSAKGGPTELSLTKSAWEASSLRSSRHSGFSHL
Description: Test for Confirmation of EP1 Receptor Antagonism
(1) Preparation of Rat EP1 Expression Vector
Using Rat Kidney BD Marathon-Ready cDNA (Nippon Becton Dickinson Company, Ltd.) as a template, and using a forward primer shown in (SEQ ID NO:1) and a reverse primer shown in (SEQ ID NO:2), a first run of PCR was carried out using KOD-Plus-Ver 2.0 (Toyobo Co., Ltd.). Further, using this amplification product as a template, and using a forward primer shown in (SEQ ID NO:3) and a reverse primer shown in (SEQ ID NO:4), a second run of PCR was carried out in the same manner. The amplification product obtained by the second run of PCR was incorporated into a vector (pcDNA3.1 D/V5-His-TOPO (registered trademark), Invitrogen Japan K. K.). By a conventional method, the vector containing this amplification product was introduced into E. coli (One Shot TOP10 Competent Cells, Invitrogen Corporation) and transformed. This transformed E. coli was cultured in an LB agar medium for one day. After the culture, colonies were selected and cultured in an LB liquid medium containing 50 μg/mL of ampicillin. After the culture, the vector was purified using a QIAprep Spin Miniprep Kit (Qiagen K. K.). The base sequence of the insertion site of this vector (SEQ ID NO:5) was compared with the rat EP1 base sequence (Ptger1) registered as Accession No. NM_013100 in a publicly-known database (NCBI), and as a result, the base sequences completely matched except for a single base. Further, the amino acid sequence translated by the base sequence completely matched the amino acid sequence of the rat EP1 receptor registered as an NCBI Accession No. NP_037232. Therefore, it was confirmed that the cloned gene sequence was a base sequence of the rat EP1 receptor and the obtained amino acid sequence was that of the rat EP1 receptor. The pcDNA3.1 D/V5-His-TOPO (registered trademark) into which the nucleic acid shown in (SEQ ID NO:5) had been inserted was taken as a rat EP1-expressing vector.
(2) Preparation of Rat EP1 Receptor-Expressing Cells
COS-1 cells (Dainippon Sumitomo Pharma Co., Ltd.) were cultured until they reached confluence in an incubator at 37° C. under a 5% CO2 gas condition, using a D-MEM liquid medium (high glucose and L-glutamine contained, Invitrogen Corporation) to which a penicillin-streptomycin solution (Invitrogen Corporation, final concentration: 100 U/mL as benzylpenicillin; 100 μg/mL as streptomycin) as an antibiotic, MEM nonessential amino acids (Invitrogen Corporation, final concentration: 0.1 mM), and fetal calf serum (Sanko Junyaku Co., Ltd., final concentration: 10%) were added.
(2-2) COS-1 Cell Subculture
The cells that had reached confluence were stripped with 0.05% trypsin/0.53 mM EDTA•4Na (Invitrogen Japan K. K.) and resuspended in the liquid medium. The resuspended cells were diluted and cultured in the liquid medium at a spread ratio from 1:4 to 1:8.
(2-3) Preparation of Cells for Introduction of Rat EP1-Expressing Vector
The cells that had reached confluence were stripped with 0.05% trypsin/0.53 mM EDTA•4Na, and resuspended in a D-MEM liquid medium (high glucose and L-glutamine contained, Invitrogen Corporation) to which MEM nonessential amino acids (final concentration: 0.1 mM) and fetal calf serum (final concentration: 10%) were added. In each well of a Poly D-lysine-coated 96-well microplate (BD BioCoat (registered trademark), Nippon Becton Dickinson Company, Ltd.), this resuspended cell suspension culture was prepared to be 5×10^4 cells/well in 100 μL of the liquid medium, and 100 μL of the cell suspension was dispensed and seeded in each well. After seeding, the cells were cultured in an incubator at 37° C. under a 5% CO2 gas condition. Once the cells for introduction of a rat EP1-expressing vector were adhered (about 2 hours after seeding), introduction of the rat EP1-expressing vector was carried out in the following order.
(2-4) Introduction of Rat EP1-Expressing Vector […]

IC50 (rat EP1 receptor) [µM] | Compound | Bladder Contraction Inhibition Rate (%) 15 minutes (Female SD rats) [%] | Bladder Contraction Inhibition Rate (%) 60 minutes (Female SD rats) [%]
0.047 | COc1ccc2c(c1)cc(-c1ccccc1)n2Cc1cccc(C(=O)NS(C)(=O)=O)n1 [Example 1-1, N-(Methanesulfonyl)-6-(5-methoxy-2-phenylindol-1-ylmethyl)pyridine-2-carboxamide] | 67.3 | 75.5
0.019 | CCS(=O)(=O)NC(=O)c1cccc(Cn2c(-c3ccccc3)cc3cc(OC)c(Cl)cc32)n1 [Example 1-6, 6-(6-chloro-5-methoxy-2-phenylindol-1-ylmethyl)-N-(ethanesulfonyl)pyridine-2-carboxamide] | 70.0 | 35.8
0.034 | COc1ccc2c(c1)cc(-c1ccccc1)n2Cc1cccc(-c2nnn[nH]2)n1 [Example 2-1, 5-Methoxy-2-phenyl-1-[6-(1H-1,2,3,4-tetrazol-5-yl)pyridin-2-ylmethyl]-1H-indole] | 73.2 | 78.1
0.024 | COc1ccc2c(c1)cc(C1(C)CC1)n2Cc1cccc(-c2nnn[nH]2)n1 [Example 5-5, 5-methoxy-2-(1-methylcyclopropyl)-1-[6-(1H-1,2,3,4-tetrazol-5-yl)pyridin-2-ylmethyl]-1H-indole] | 85.3 | 55.2
